The structures appear in SMILES notation. Values joined by “and” are separate entries in the source; they are usually repeats but may differ in a detail not shown here. Identical values can stand only once. “Also recorded” adds a separate entry of the source.

The results in this text go back to patent US20250295790A1, “LECTIN-TARGETING CONJUGATES” (Helmholtz-Zentrum für Infektionsforschung GmbH, priority 2021, published 2025).

One data set has as its system P. aeruginosa PA14. The data set is described as follows: Antibiotic susceptibility (MIC assay, broth microdilution). Format: cell-based, Pseudomonas aeruginosa PA14. The procedure: Bacterial strains were streaked on LB-agar plates (1% agar) from glycerol stocks and incubated at 37° C. overnight. Colonies were picked from plate and dispersed in fresh MiGler-Hinton broth II (MHB II) to yield an OD600 of 0.08-0.13. This dispersion was diluted 1:100 in fresh MHB II, which was then used for the assay to achieve a final inoculum of 5×10^5 CFU/mL. 50 μL inoculum was mixed with 50 μL of the serial dilution in the corresponding well of the 96-well plate.
The different matrices were prepared under sterile conditions: (i) 5 mL human plasma and 1 mL sterile filtrate from an P. aeruginosa PA14 overnight culture in LB were mixed with 4 mL PBS; (ii) 1 mL sterile filtrate from an P. aeruginosa PA14 overnight culture was diluted in 9 mL PBS; (iii) PBS only and (iv) 5 mL human plasma and 1 mL LB were mixed with 4 mL PBS. 6 L of each compound dilution series was diluted in 115 L matrix (˜-1:20 dilution) in a 96-well format at time point T=−3 h or T=−10 min.
The plates prepared at T=−3 h were sealed with gas-permeable foil and incubated at 37° C. in a humid incubator. The other plates were kept at room temperature. At T=0 h, 50 µL of each well was mixed with 50 μL incoculum (as described above) in double-concentrated MHBII in a sterile 96-well plate.
The plates were sealed with gas-permeable foil and incubated at 37° C. for 18-20 h in a humid incubator. Growth inhibition was assessed by visual inspection and given MIC values are the lowest concentration of antibiotic at which there was no visible growth.
(Broth dilution looks for growth in wells or tubes with falling amounts of substance.)

Data set [1] is described as follows: Prodrug activation assay in human blood plasma spiked with P. aeruginosa PA14 culture supernatant. The data set is classed as in vitro ADME, Pseudomonas aeruginosa PA14. Particulars: 50% human blood plasma spiked with 10% P. aeruginosa culture supernatant, within 3 h. The procedure: In the prodrug activation assay, the bacterial strain Pseudomonas aeruginosa PA14 wt (DSM 19882) was used. The strain was obtained from the German Collection of Microorganisms and Cell Cultures (DSMZ).
P. aeruginosa PA14 was streaked on LB-agar plates (1% agar) from glycerol stocks and incubated at 37° C. overnight. 2-5 colonies were picked and dispersed in 10 mL LB (10 g/L trypton, 10 g/L NaCl, 5 g/L yeast extracts). This dispersion was incubated overnight at 37° C., 180 rpm under high humidity. The culture was centrifuged (4000 ref, room temperature, 10 min) and the supernatant was filtered (0.22 m pore size). […]
A 1 mM solution of the studied compound was prepared in PBS (150 mM NaCl, 2.6 mM KCl, 1.4 mM KH2PO4, 10 mM Na2HPO4, pH 7.4) with 20% DMSO. 50 μL of this solution was diluted in 950 μL matrix or human plasma (spiked with 10% LB) on ice. After brief vortex, 100 μL were immediately treated with 100 μL ice-cold MeCN (spiked with […] diphenhydramine as internal standard). The rest of the solution was incubated at 37° C. and 500 rpm in an eppendorf thermomixer. At various time points (30, 60, 120, 180 min), 100 L sample were taken and treated as described above. […] The AUC of the parent drug and its cleavage products and the internal standard was quantified using Compass QuantAnalysis quantification software. The relative AUC was calculated by AUC (compound)/AUC(ISTD). Procaine was used as a positive control as it readily degrades in human plasma.

The nature of data set [2]: Plasma protein binding assay (RED), human plasma. Format: in vitro ADME. The following applies: human blood plasma. The method, then:
Plasma protein binding was assessed using the rapid equilibrium device (RED) system from ThermoFisher. […] Dialysis buffer and plasma samples were added to the respective chambers according the manufacturer's protocol. The RED plate was sealed with a tape and incubated at 37° C. for 2 hours at 800 rpm on an Eppendorf MixMate® vortex-mixer. Then samples were withdrawn from the respective chambers. To 25 μl of each dialysis sample, 25 μl of plasma and to 25 μl of plasma sample, 25 l of dialysis buffer was added. […] Samples were incubated for 30 min on ice. Then samples were centrifuged at 4° C. at 2270 ref for 10 min. Supernatants were transferred to Greiner V-bottom 96-well plates and sealed with a tape. Then samples were subjected to HPLC-MS/MS analysis as described in the section ‘HPLC-MS/MS analysis’. The percentage of bound compound was calculated as follows: […]
Cell samples as well as plasma stability, plasma protein binding and metabolic stability samples were analysed using an Agilent 1290 Infinity II coupled to an AB Sciex 6500plus mass spec-trometer. LC conditions were as follows: column: Agilent Zorbax Eclipse Plus C18, 50×2.1 mm, 1.8 m; temperature: 30° C.; injection volume: 5 l per sample; flow rate: 700 l/min. Solvents: A: water+0.1% formic acid; solvent B: 95% acetonitrile/5% H2O+0.1% formic acid. […]

The mark [3] stands for this setting: Matrix 1: PBS, pre-incubation 3 h.
The mark [4] stands for this setting: Matrix 1: PBS, pre-incubation <10 min.
[5] abbreviates: Matrix 2: 50% human blood plasma + 10% P. aeruginosa culture supernatant in PBS, pre-incubation 3 h.
Setting [6] is: Matrix 2: 50% human blood plasma + 10% P. aeruginosa culture supernatant in PBS, pre-incubation <10 min.
The mark [7] stands for this setting: Matrix 3: 10% P. aeruginosa culture supernatant in PBS, pre-incubation 3 h.
The mark [8] stands for this setting: Matrix 3: 10% P. aeruginosa culture supernatant in PBS, pre-incubation <10 min.
[9] abbreviates: Matrix 4: 50% human blood plasma + 10% LB in PBS, pre-incubation 3 h.
Where [10] appears, read: Matrix 4: 50% human blood plasma + 10% LB in PBS, pre-incubation <10 min.

The term MIC denotes the least concentration at which growth counts as inhibited. Consider `CC(C)CC(NC(=O)CNC(=O)C(C)NC(=O)c1ccc(S(=O)(=O)NCC2OC(C)C(O)C(O)C2O)cc1)C(=O)NC(C)C(=O)NC1CCN(c2cc3c(cc2F)c(=O)c(C(=O)O)cn3C2CC2)C1` (centres unmarked) [Compound 37], for which the MIC in the data set with P. aeruginosa PA14 (setting [3]) was greater than 25 µM; against P. aeruginosa PA14 (setting [4]) it was greater than 25 µM; in the data set on P. aeruginosa PA14 (setting [5]), 0.1 to 0.195 µM; in the data set on P. aeruginosa PA14 (setting [6]) it was 0.78 to 1.56 µM; in the data set on P. aeruginosa PA14 (setting [7]), 0.39 to 3.13 µM; against P. aeruginosa PA14 (setting [8]) it was 1.56 to 12.5 µM. For the same compound, the MIC in the data set with P. aeruginosa PA14 (setting [9]) was 0.78 to 6.25 µM; in the data set with P. aeruginosa PA14 (setting [10]), no less than 25 µM. Also, the “release of antibiotic cargo” value in data set [1] is recorded as “release their antibiotic cargo; also recorded: released a significant amount of their antibiotic cargo; also recorded: efficiently released their antibiotic cargo”. Also, the “plasma protein binding human” value in data set [2] is 51% and 51.1 ± 13.3%.
In the case of `CC(C)C[C@H](NC(=O)CNC(=O)[C@H](C)NC(=O)c1ccc(S[C@@H]2O[C@H](CO)[C@H](O)[C@H](O)[C@H]2O)cc1)C(=O)N[C@@H](C)C(=O)N[C@H]1CCN(c2cc3c(cc2F)c(=O)c(C(=O)O)cn3C2CC2)C1` [Compound 36], the MIC in the data set with P. aeruginosa PA14 (setting [3]) was greater than 25 µM; against P. aeruginosa PA14 (setting [4]), greater than 25 µM; in the data set on P. aeruginosa PA14 (setting [5]) it was 0.1 µM; with P. aeruginosa PA14 (setting [6]), 0.195 to 0.39 µM; in the data set with P. aeruginosa PA14 (setting [7]), 0.195 to 3.13 µM; with P. aeruginosa PA14 (setting [8]), 0.78 to 3.13 µM. The MIC with P. aeruginosa PA14 (setting [9]) is 0.78 to 6.25 µM; in the data set with P. aeruginosa PA14 (setting [10]) it was no less than 25 µM. Moreover, the “release of antibiotic cargo” value in data set [1] is listed as “release their antibiotic cargo; also recorded: released a significant amount of their antibiotic cargo; also recorded: efficiently released their antibiotic cargo”. Moreover, the “plasma protein binding human” value in data set [2] is 97% and 97.2 ± 4.8%.
